Measurements: patent US10738033B2, “Trk inhibition” (NantBio, Inc., priority 2017, dated 2020)

molecular target: T1, TrkA(h) (Homo sapiens, UniProt P04629); experiment: KinaseProfiler (Millipore) radiometric kinase inhibition assay; type: biochemical; details: compound concentration 1 μM
T1 construct: purchased Millipore (KinaseProfiler service)
Experimental: The KinaseProfiler™ Service Assay Protocols (Millipore) were used to test the kinase inhibiting activity of novel compounds from this invention. To do this, the buffer composition was as follows: 20 mM MOPS, 1 mM EDTA, 0.01% Brij-35, 5% Glycerol, 0.1% β-mercaptoethanol, 1 mg/mL BSA. Test compounds were initially dissolved in DMSO at the desired concentration, then serially diluted into the kinase assay buffer. In a final reaction volume of 25 μL, TrkA(h) (5-10 mU) is incubated with 8 mM MOPS pH 7.0, 0.2 mM EDTA, 200 μM LRRASLG (Kemptide), 10 mM MgAcetate and [γ^33P-ATP]. The reaction was initiated by the addition of the MgATP mix. After incubation for 40 minute at room temperature, the reaction was stopped by addition of 5 μL of a 3% phosphoric acid solution. 10 μL of the reaction was then spotted onto a P30 filtermat and washed three times for 5 minutes in 50 mM phosphoric acid and once in methanol prior to drying and scintillation counting. Wells containing substrate but no kinase and wells containing a phosphopeptide control were used to set 0% and 100% phosphorylation value, respectively.

T1 sequence (P04629 33-796): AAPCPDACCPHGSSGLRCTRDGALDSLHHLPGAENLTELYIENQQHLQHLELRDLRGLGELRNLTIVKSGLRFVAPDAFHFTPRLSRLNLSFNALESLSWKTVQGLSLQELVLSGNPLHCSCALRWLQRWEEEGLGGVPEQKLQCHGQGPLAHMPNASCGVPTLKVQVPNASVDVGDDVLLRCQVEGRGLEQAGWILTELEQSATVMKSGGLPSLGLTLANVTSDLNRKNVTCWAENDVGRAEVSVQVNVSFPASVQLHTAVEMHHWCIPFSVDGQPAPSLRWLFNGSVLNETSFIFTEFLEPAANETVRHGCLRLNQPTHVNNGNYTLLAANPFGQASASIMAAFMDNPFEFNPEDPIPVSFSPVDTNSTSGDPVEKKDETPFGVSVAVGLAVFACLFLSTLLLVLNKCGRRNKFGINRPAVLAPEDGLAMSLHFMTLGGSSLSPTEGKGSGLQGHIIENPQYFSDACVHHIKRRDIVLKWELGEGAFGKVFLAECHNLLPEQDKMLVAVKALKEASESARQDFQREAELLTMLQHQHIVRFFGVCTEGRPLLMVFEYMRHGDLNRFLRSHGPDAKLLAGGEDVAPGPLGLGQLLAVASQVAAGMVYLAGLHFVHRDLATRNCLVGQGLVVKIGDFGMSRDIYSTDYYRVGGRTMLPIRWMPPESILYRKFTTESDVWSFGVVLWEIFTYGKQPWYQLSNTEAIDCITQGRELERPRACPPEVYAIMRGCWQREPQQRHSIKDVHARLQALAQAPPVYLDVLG

How did the inhibition at 1 µM turn out when c1ccc(C2CCCN2c2cc(Nc3cc(C4CC4)[nH]n3)ncn2)cc1 (stereo not drawn) [Example 24] was run?
Its inhibition at 1 µM is 101%.

Cc1ccc(C2CCCN2c2cc(Nc3cc(C4CC4)[nH]n3)ncn2)cc1 (stereo not drawn) [Example 25] was tested. Which inhibition at 1 µM did it give?
Its inhibition at 1 µM is 100%.

For FC(F)(F)c1ccc(C2CCCN2c2cc(Nc3cc(C4CC4)[nH]n3)ncn2)cc1 (stereo not drawn) [Example 26], which inhibition at 1 µM is on record?
The inhibition at 1 µM was 98%.

COc1ccc(C2CCCN2c2cc(Nc3cc(C4CC4)[nH]n3)ncn2)cc1 (stereo not drawn) [Example 27] was tested. Which inhibition at 1 µM did it give?
The inhibition at 1 µM was 101%.

Fc1ccc(C2CCCN2c2cc(Nc3cc(C4CC4)[nH]n3)ncn2)cc1 (stereo not drawn) [Example 28] was tested. Which inhibition at 1 µM did it give?
Its inhibition at 1 µM is 103%.

With Clc1ccc(C2CCCN2c2cc(Nc3cc(C4CC4)[nH]n3)ncn2)cc1 (stereo not drawn) [Example 29] as the compound, how does the inhibition at 1 µM read?
The inhibition at 1 µM was 105%.

Cc1cccc(C2CCCN2c2cc(Nc3cc(C4CC4)[nH]n3)ncn2)c1 (stereo not drawn) [Example 30] was tested. Which inhibition at 1 µM did it give?
Its inhibition at 1 µM is 97%.

FC(F)(F)c1cccc(C2CCCN2c2cc(Nc3cc(C4CC4)[nH]n3)ncn2)c1 (stereo not drawn) [Example 31] was tested. Which inhibition at 1 µM did it give?
Its inhibition at 1 µM is 61%.

Which inhibition at 1 µM does the source give for COc1cccc(C2CCCN2c2cc(Nc3cc(C4CC4)[nH]n3)ncn2)c1 (stereo not drawn) [Example 32] here?
The inhibition at 1 µM was 91%.

For Fc1cccc(C2CCCN2c2cc(Nc3cc(C4CC4)[nH]n3)ncn2)c1 (stereo not drawn) [Example 33], which inhibition at 1 µM is on record?
The inhibition at 1 µM was 103%.

With Clc1cccc(C2CCCN2c2cc(Nc3cc(C4CC4)[nH]n3)ncn2)c1 (stereo not drawn) [Example 34] as the compound, how does the inhibition at 1 µM read?
Its inhibition at 1 µM is 101%.

Cc1ccccc1C1CCCN1c1cc(Nc2cc(C3CC3)[nH]n2)ncn1 (stereo not drawn) [Example 35] was tested. Which inhibition at 1 µM did it give?
Its inhibition at 1 µM is 92%.

With FC(F)(F)c1ccccc1C1CCCN1c1cc(Nc2cc(C3CC3)[nH]n2)ncn1 (stereo not drawn) [Example 36] as the compound, how does the inhibition at 1 µM read?
Its inhibition at 1 µM is 93%.

For COc1ccccc1C1CCCN1c1cc(Nc2cc(C3CC3)[nH]n2)ncn1 (stereo not drawn) [Example 37], which inhibition at 1 µM is on record?
Its inhibition at 1 µM is 101%.

For Fc1ccccc1C1CCCN1c1cc(Nc2cc(C3CC3)[nH]n2)ncn1 (stereo not drawn) [Example 38], which inhibition at 1 µM is on record?
Its inhibition at 1 µM is 95%.

Clc1ccccc1C1CCCN1c1cc(Nc2cc(C3CC3)[nH]n2)ncn1 (stereo not drawn) [Example 39] was tested. Which inhibition at 1 µM did it give?
Its inhibition at 1 µM is 97%.

How did the inhibition at 1 µM turn out when CN(C)c1ccc(C2CCCN2c2cc(Nc3cc(C4CC4)[nH]n3)ncn2)cc1 (stereo not drawn) [Example 40] was run?
The inhibition at 1 µM was 102%.

With CN(C)c1cccc(C2CCCN2c2cc(Nc3cc(C4CC4)[nH]n3)ncn2)c1 (stereo not drawn) [Example 41] as the compound, how does the inhibition at 1 µM read?
Its inhibition at 1 µM is 101%.

How did the inhibition at 1 µM turn out when Fc1cccc(F)c1C1CCCN1c1cc(Nc2cc(C3CC3)[nH]n2)ncn1 (stereo not drawn) [Example 42] was run?
Its inhibition at 1 µM is 101%.

How did the inhibition at 1 µM turn out when Fc1ccc(C2CCCN2c2cc(Nc3cc(C4CC4)[nH]n3)ncn2)c(F)c1 (stereo not drawn) [Example 43] was run?
Its inhibition at 1 µM is 105%.

Which inhibition at 1 µM does the source give for Fc1ccc(F)c(C2CCCN2c2cc(Nc3cc(C4CC4)[nH]n3)ncn2)c1 (stereo not drawn) [Example 44] here?
Its inhibition at 1 µM is 103%.

With OC1CC(c2cc(F)ccc2F)N(c2cc(Nc3cc(C4CC4)[nH]n3)ncn2)C1 (stereo not drawn) [Example 45] as the compound, how does the inhibition at 1 µM read?
The inhibition at 1 µM was 96%.

Clc1ccc(C2CCCN2c2cc(Nc3cc(C4CC4)[nH]n3)ncn2)cc1Cl (stereo not drawn) [Example 46] was tested. Which inhibition at 1 µM did it give?
The inhibition at 1 µM was 100%.

Which inhibition at 1 µM does the source give for Cc1ccc(C2CCCN2c2ncnc(Nc3cc(C4CC4)[nH]n3)c2C#N)cc1 (stereo not drawn) [Example 47] here?
The inhibition at 1 µM was -6%.

With Fc1ccc(C2CCCN2c2ncnc(Nc3cc(C4CC4)[nH]n3)c2F)cc1 (stereo not drawn) [Example 48] as the compound, how does the inhibition at 1 µM read?
Its inhibition at 1 µM is 51%.

For Fc1ccc(C2CCCN2c2cc(Nc3cc(C4CCC4)[nH]n3)ncn2)cc1 (stereo not drawn) [Example 49], which inhibition at 1 µM is on record?
Its inhibition at 1 µM is 101%.

For C/C=C/c1cc(Nc2cc(N3CCCC3c3ccc(F)cc3)ncn2)n[nH]1 (stereo not drawn) [Example 50], which inhibition at 1 µM is on record?
Its inhibition at 1 µM is 99%.

Fc1ccc(C2CCCN2c2cc(Nc3cc(-c4ccco4)[nH]n3)ncn2)cc1 (stereo not drawn) [Example 51] was tested. Which inhibition at 1 µM did it give?
Its inhibition at 1 µM is 79%.

With Fc1ccc(C2CCCN2c2cc(Nc3cc(-c4ccccn4)[nH]n3)ncn2)cc1 (stereo not drawn) [Example 52] as the compound, how does the inhibition at 1 µM read?
Its inhibition at 1 µM is 30%.

Which inhibition at 1 µM does the source give for CC(C)Oc1cc(Nc2cc(N3CCCC3c3ccccc3Cl)ncn2)n[nH]1 (stereo not drawn) [Example 53] here?
The inhibition at 1 µM was 96%.

Which inhibition at 1 µM does the source give for Clc1ccccc1C1CCCN1c1cc(Nc2cc(C3CCCO3)[nH]n2)ncn1 (stereo not drawn) [Example 54] here?
Its inhibition at 1 µM is 70%.

CC(C)(C)OC(=O)N1CCC(c2cc(Nc3cc(N4CCCC4c4ccccc4Cl)ncn3)n[nH]2)CC1 (stereo not drawn) [Example 55] was tested. Which inhibition at 1 µM did it give?
The inhibition at 1 µM was 6%.

Clc1ccccc1C1CCCN1c1cc(Nc2cc(-c3ccco3)[nH]n2)ncn1 (stereo not drawn) [Example 56] was tested. Which inhibition at 1 µM did it give?
Its inhibition at 1 µM is 47%.

For Fc1ccc(Nc2cc(N3CCCC3c3ccc(F)cc3)ncn2)cc1 (stereo not drawn) [Example 57], which inhibition at 1 µM is on record?
Its inhibition at 1 µM is 44%.

N#Cc1cnc(Nc2cc(N3CCCC3c3ccc(F)cc3)ncn2)s1 (stereo not drawn) [Example 58] was tested. Which inhibition at 1 µM did it give?
Its inhibition at 1 µM is 7%.

For CC(C)n1cc(Nc2cc(N3CCCC3c3ccc(F)cc3)ncn2)cn1 (stereo not drawn) [Example 59], which inhibition at 1 µM is on record?
Its inhibition at 1 µM is 0%.

With Fc1ccc(C2CCCN2c2cc(Nc3n[nH]c4ccccc34)ncn2)cc1 (stereo not drawn) [Example 60] as the compound, how does the inhibition at 1 µM read?
Its inhibition at 1 µM is 79%.

For CN1CCN(c2ccc(Nc3cc(N4CCCC4c4ccc(F)cc4)ncn3)nc2)CC1 (stereo not drawn) [Example 61], which inhibition at 1 µM is on record?
Its inhibition at 1 µM is -12%.

Fc1ccc(C2CCN2c2cc(Nc3cc(C4CC4)[nH]n3)ncn2)cc1 (stereo not drawn) [Example 62] was tested. Which inhibition at 1 µM did it give?
Its inhibition at 1 µM is 105%.

With c1ccc(C2CCCCN2c2cc(Nc3cc(C4CC4)[nH]n3)ncn2)cc1 (stereo not drawn) [Example 63] as the compound, how does the inhibition at 1 µM read?
Its inhibition at 1 µM is 99%.

With c1ccc(C2COCCN2c2cc(Nc3cc(C4CC4)[nH]n3)ncn2)cc1 (stereo not drawn) [Example 64] as the compound, how does the inhibition at 1 µM read?
Its inhibition at 1 µM is 85%.

For CN1CCN(c2cc(Nc3cc(C4CC4)[nH]n3)ncn2)C(c2ccccc2)C1 (stereo not drawn) [Example 65], which inhibition at 1 µM is on record?
The inhibition at 1 µM was 79%.

Cc1cc(Nc2cc(N3CCCC3c3ccc(Cl)cc3)ncn2)n[nH]1 (stereo not drawn) [Example 66] was tested. Which inhibition at 1 µM did it give?
The inhibition at 1 µM was 95%.

For CCCc1cc(Nc2cc(N3CCCC3c3ccc(Cl)cc3)ncn2)n[nH]1 (stereo not drawn) [Example 67], which inhibition at 1 µM is on record?
Its inhibition at 1 µM is 99%.

For Nc1nc(Nc2cc(C3CC3)[nH]n2)cc(N2CCCC2c2ccc(F)cc2)n1 (stereo not drawn) [Example 71], which inhibition at 1 µM is on record?
Its inhibition at 1 µM is 100%.

With Fc1ccc(C2CCCN2c2ncnc(Nc3cc(C4CC4)[nH]n3)n2)cc1 (stereo not drawn) [Example 73] as the compound, how does the inhibition at 1 µM read?
The inhibition at 1 µM was 100%.

Which inhibition at 1 µM does the source give for Fc1ccc(C2CCCN2c2ncnc(Nc3cc(C4CC4)[nH]n3)n2)c(F)c1 (stereo not drawn) [Example 74] here?
The inhibition at 1 µM was 100%.

For Clc1ccc(C2CCCN2c2ncnc(Nc3cc(C4CC4)[nH]n3)n2)cc1 (stereo not drawn) [Example 75], which inhibition at 1 µM is on record?
The inhibition at 1 µM was 100%.
